Results taken from US12612411B1, “Imidazopyrazine derivatives, process for preparation thereof, and their uses as luciferins” (INSTITUT PASTEUR, priority 2017, dated 2026).

How the values were obtained:
[1] = Acidic hydrolysis of imidazo[1,2-a]pyrazin-3-yl acetate into the luciferin, LC/MS monitoring; assay type: physicochemical; conditions: DMSO / acidic ethanol (HCl), 50° C.
Protocol: FIG. 1 illustrates the HPLC profiles over time for the acetyl hydrolysis of P-21 (M=451) into the corresponding luciferin Q-12 (M=409). Obtained on an Agilent apparatus, with a 3.5 μm XDB-C18 column and a water/methanol gradient (containing 5 mM ammonium formate, from 95-5 to 5-95 in 3.5 min, 3.5 min at 5-95, and then back at 95-5 in 0.5 min), UV monitoring set at […].
(§1) General protocol for the generation of solutions of imidazo[1,2-a]pyrazin-3(7H)-one Q by acidic hydrolysis of imidazo[1,2-a]pyrazin-3-yl acetate derivatives P. The considered acetate P (1 mg) was dissolved in DMSO (0.2 mL) and then diluted by adding a solution of acidic ethanol (0.3 ml) made from the addition of 37% hydrochloric acid (100 μl) on 100% ethanol (12 mL). This 0.5 mL solution was incubated at 50° C. for 2 hours to give a stock solution which was then stored at −80° C. […] Nota: these conditions are only adapted to the hydrolysis of the protecting group (as defined above) of the oxygen on position 2 of the imidazo[1,2-a]pyrazine ring system and not to the hydrolysis of any additional acetyl groups eventually present elsewhere on the substrate of this reaction.

[2] = cited from earlier work; for storage stability: commercially available luciferins; for permitted storage time at 4° C.: recommended storage conditions
[3] = target: T1, nanoKAZ (Oplophorus gracilirostris, UniProt Q9GV45, A31E/A60N/A81I/F95D/I117V/K70R/L54V/L99Q/M102K/N193R/P142E/Q151K/Q38R/Q45L/V71I/Y165I); test: Bioluminescence emission spectra; assay type: biochemical
T1 construct: luciferase catalytic domain (nanoKAZ, 19 kDa) from the Oplophorus-derived luciferase
Source text: Furimazine (Q-1) and derivatives have emission spectra centred on 460 nm but present large peaks bleeding beyond 580 nm. The bioluminescence obtained with the analogue Q-3 provides photons with 10% of them having a wavelength beyond 560 nm up to 600 nm. This wide spectra emission toward red is thus allowing the use of the nanok AZ/furimazine for in vivo imaging. The light emission beyond 580 is thousands times higher than red emitting firefly or beetle luciferases. IL7:nanoKAZ and analogue Q-3 were injected in mice.

[4] = system: protein chimeras fused to the nanoKAZ in transiently transfected HEK and Jurkat cell lines, and primary human T-cells; test: In cellulo bioluminescence imaging with a light microscope; assay type: cell-based; conditions: nanoKAZ/furimazine versus nanoKAZ/Q-3
Source text: FIG. 5 compares expression and location of protein chimeras fused to the nanoKAZ in transiently transfected HEK and Jurkat cell lines, and primary human T-cells: the cytokine receptor IL7Rα:nanoKAZ at the membrane (top), the enconsin tubulin binding protein EMTB:nanoKAZ associated with microtubules (middle), the transcription factor STAT5a:nanoKAZ dense throughout the cytoplasm and faint in the nucleus (bottom).
The acquisition of bioluminescence using a light microscope provides a quantitative measurement of light emission cell by cell, the main advantage. This is meaningful especially when the transfection efficiency is low in the case of nanoKAZ expression provided by plasmids. […] The higher is the bioluminescence efficiency, the lower is the exposure time and the lower is the sensitivity required for the detector or camera. NanoKAZ with developed substrates such as Q-3 or Q-12 opens the bioluminescence imaging to standard light microscope. The lower the exposure time, the higher the resolution, which is impeded by the motion of living cells. Any gain in light emission enhances the quality of images. Luciferase reporters or fragments can be fused to proteins targeting the cell surface, cytoplasm, organelles, nucleus or exosomes and can be carried by virus, host-infecting cells or agents, biologic complexes, beads or any particles. […]

[5] = target: T2, nanoKAZ luciferase (Oplophorus gracilirostris, UniProt Q9GV45, A31E/A60N/A81I/F95D/I117V/K70R/L54V/L99Q/M102K/N193R/P142E/Q151K/Q38R/Q45L/V71I/Y165I); test: In vitro bioluminescence screening of imidazo[1,2-a]pyrazin-3(7H)-ones with nanoKAZ expressed in vitro (96-well luminometer, 2 h kinetic); assay type: biochemical; conditions: furimazine = 1
T2 construct: luciferase catalytic domain (nanoKAZ, 19 kDa) from the Oplophorus-derived luciferase; host or cells: cell-free: 1-Step Human Coupled IVT Kit, pT7CFE1-based vector
Protocol: as §1
The representative bioluminescence curves shown in the FIG. 2 provided an assessment for furimazine (Q-1), 8-benzyl-2-(furan-2-ylmethyl)-6-(4-hydroxyphenyl)imidazo[1,2-a]pyrazin-3 (7/1)-one (Q-80), 8-(2-fluorobenzyl)-2-(furan-2-ylmethyl)-6-phenylimidazo[1,2-a]pyrazin-3(7H)-one (Q-84), and 8-(2-fluorobenzyl)-2-((5-methylfuran-2-yl)methyl)-6-phenylimidazo[1,2-a]pyrazin-3(7H)-one (Q-85) was obtained using a luciferase expressed in vitro as described in the following. The nanoKAZ DNA template was cloned into Thermo Scientific pT7CFE1-based vector and nanoKAZ was expressed using ThermoFisher Scientific 1-Step Human Coupled IVT Kit—DNA (ref. 88881) according to the manufacturer instructions. The resulting reaction mix was diluted 400 times in buffer (DPBS (Gibco)+0.1% (v/v) Tween 20) and conserved at −80° C. The screening of the imidazo[1,2-a]pyrazin-3(7H)-ones was performed in 96 well plates using 50 μL/well of a 1/20 dilution in DPBS (Gibco)+0.1% (v/v) Tween 20 of the nanoKAZ solution.
To illustrate the bioluminescence properties improvement achieved for many of the imidazo[1,2-a]pyrazin-3(7H)-ones described here, four values are provided in Table 1: maximum intensity (V1), signal half-life (V2), area under the curve for ten minutes (V3), and area under the curve for two hours (V4), normalized using furimazine (Q-1) as a reference.
The bioluminescence properties of the tested compounds are considered to be improved when at least one of the values V1-V4 is above 1, and when none of the V1-V4 values is 0.05 or below.
By following the hydrolysis protocol described above, the following imidazo[1,2-a]pyrazin-3(7H)-ones luciferins Q were made in situ from the corresponding O-protected imidazo[1,2-a]pyrazines P and evaluated for their bioluminescence properties (maximum intensity (V1), signal half-life (V2), area under the curve for […], normalized using furimazine (Q-1) as a reference): […]

[6] = target: T1, nanoKAZ; test: Michaelis-Menten parameters of nanoKAZ from Lineweaver-Burk representation; assay type: biochemical
Source text: The two dotted lines (linear regression) are converging to the same intercept with the x-axis (−1/Km) and different intercepts with the y-axis (1/Vmax). The equations of the two linear regressions are indicated and the corresponding correlation factors (R^2) with the experimental data are reported.
Considering the hypothesis of a Michaelis-Menten mechanism for the nanoKAZ, the Km and Vmax were extrapolated from the Lineweaver-Burk representation of the enzyme activity catalyzing either Q-1 or Q-3. […] The data have been fitted with linear regression with satisfying high correlation factors (R). The Km are the same for both substrates (Km=2 μM) whereas the Vmax is 3-times lower for Q-1 (0.6·10^6 RLU/sec) than for Q-3 (2.0·10^6 RLU/sec).

[7] = second table, luciferins made in situ from O-protected P

T1 sequence (Q9GV45 other isoform, or with tags, fused parts or gaps with the stated changes): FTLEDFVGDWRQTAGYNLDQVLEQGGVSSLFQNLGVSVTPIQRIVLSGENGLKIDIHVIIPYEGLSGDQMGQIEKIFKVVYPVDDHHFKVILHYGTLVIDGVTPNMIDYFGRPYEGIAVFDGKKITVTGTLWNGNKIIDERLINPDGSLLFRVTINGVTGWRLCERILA
T2 sequence (Q9GV45 other isoform, or with tags, fused parts or gaps with the stated changes): as above

| SMILES | V3: area under the curve for 2 hours, normalized using furimazine (Q-1) as a reference ([5]; second table) | V4: area under the curve for ten minutes, normalized using furimazine (Q-1) as a reference ([5]; second table) | V1: maximum intensity, normalized using furimazine (Q-1) as a reference [5, 7] | other results |
| --- | --- | --- | --- | --- |
| CCc1ccc(Cc2nc3c(Cc4ccccc4)nc(-c4ccccc4)cn3c2OC(C)=O)o1 [P-21, 8-Benzyl-2-((5-ethylfuran-2-yl)methyl)-6-phenylimidazo[1,2-a]pyrazin-3-yl acetate] |  |  |  | time to complete hydrolysis into the luciferin Q-12 [1]: complete reaction in less than two hours |
| O=c1c(Cc2ccco2)nc2c(Cc3ccccc3)[nH]c(-c3ccccc3)cn1-2 [Q-1, 8-benzyl-2-(furan-2-ylmethyl)-6-phenylimidazo[1,2-a]pyrazin-3(7H)-one, reference compound] | 1 | 1 | 1 | storage stability [2]: very weak storage stability; permitted storage time at 4° C. [2]: up to two weeks only; emission spectra centre [3]: 460 nm; extension of experience times to get the same quality as with nanoKAZ/analogue Q-3 [4]: 3 folds; V1: maximum intensity, normalized using furimazine (Q-1) as a reference ([5]; Table 1): 1; V3: area under the curve for ten minutes, normalized using furimazine (Q-1) as a reference ([5]; Table 1): 1; V4: area under the curve for two hours, normalized using furimazine (Q-1) as a reference ([5]; Table 1): 1; Vmax, times lower than for Q-3 ([6]; Q-1 versus Q-3): 3 times; Vmax ([6]; extrapolated from Lineweaver-Burk, constant enzyme concentration): 0.6·10^6 RLU/sec |
| O=c1c(Cc2ccc(O)cc2)nc2c(Cc3ccccc3)[nH]c(-c3ccc(O)cc3)cn1-2 [Q-86, 8-benzyl-2-(4-hydroxybenzyl)-6-(4-hydroxyphenyl)imidazo[1,2-a]pyrazin-3(7H)-one, reference compound] |  |  |  | storage stability [2]: very weak storage stability; permitted storage time at 4° C. [2]: up to two weeks only; V1: maximum intensity, normalized using furimazine (Q-1) as a reference ([5]; Table 1): 0.09; V3: area under the curve for ten minutes, normalized using furimazine (Q-1) as a reference ([5]; Table 1): 0.08; V4: area under the curve for two hours, normalized using furimazine (Q-1) as a reference ([5]; Table 1): 0.07 |
| Cc1cc(Cc2nc3c(Cc4ccccc4F)[nH]c(-c4ccccc4)cn-3c2=O)oc1C [Q-131, 2-((4,5-dimethylfuran-2-yl)methyl)-8-(2-fluorobenzyl)-6-phenylimidazo[1,2-a]pyrazin-3(7H)-one] | 1.9 | 1.02 | 2.01 |  |
| Cc1cc(Cc2nc3c(Cc4cccc(F)c4)[nH]c(-c4ccccc4)cn-3c2=O)oc1C [Q-132, 2-((4,5-dimethylfuran-2-yl)methyl)-8-(3-fluorobenzyl)-6-phenylimidazo[1,2-a]pyrazin-3(7H)-one] | 1.44 | 1 | 1.5 |  |
| CCCc1ccc(Cc2nc3c(Cc4ccccc4)[nH]c(-c4ccccc4)cn-3c2=O)o1 [Q-133, 8-benzyl-6-phenyl-2-((5-propylfuran-2-yl)methyl)imidazo[1,2-a]pyrazin-3(7H)-one] | 1.23 | 1.33 | 1.26 |  |
| CCc1cc(Cc2nc3c(Cc4cccc(F)c4F)[nH]c(-c4ccccc4)cn-3c2=O)oc1C [Q-135, 8-(2,3-difluorobenzyl)-2-((4-ethyl-5-methylfuran-2-yl)methyl)-6-phenylimidazo[1,2-a]pyrazin-3(7H)-one] | 0.51 | 1.19 | 1.26 |  |
| CCc1oc(Cc2nc3c(Cc4cccc(F)c4F)[nH]c(-c4ccccc4)cn-3c2=O)cc1C [Q-143, 8-(2,3-difluorobenzyl)-2-((5-ethyl-4-methylfuran-2-yl)methyl)-6-phenylimidazo[1,2-a]pyrazin-3(7H)-one] | 0.39 | 1.34 | 1.43 |  |
| O=c1c(Cc2ccco2)nc2c(Cc3ccccc3)[nH]c(-c3cccc(O)c3)cn1-2 [Q-149, 8-benzyl-2-(furan-2-ylmethyl)-6-(3-hydroxyphenyl)imidazo[1,2-a]pyrazin-3(7H)-one] | 0.85 | 1.05 | 1.12 |  |
